Measurements reported in patent US12421253B2 (Mirati Therapeutics, Inc., priority 2020, dated 2025).

What was measured:
KRas^G12D = molecular target: T1, KRas^G12D (Homo sapiens, UniProt P01116, G12D); assay: KRas binding assay (TR-FRET displacement of Cy5 labelled tracer)
T1 construct: […]; biotin (biotinylated); purchased Accelegan Inc

KRas^G12R = molecular target: T2, KRas^G12R (Homo sapiens, UniProt P01116, G12R); assay: as above
T2 construct: […]; biotin (biotinylated); purchased Accelegan Inc
T2 sequence (P01116 1-169 isoform P01116-2 G12R): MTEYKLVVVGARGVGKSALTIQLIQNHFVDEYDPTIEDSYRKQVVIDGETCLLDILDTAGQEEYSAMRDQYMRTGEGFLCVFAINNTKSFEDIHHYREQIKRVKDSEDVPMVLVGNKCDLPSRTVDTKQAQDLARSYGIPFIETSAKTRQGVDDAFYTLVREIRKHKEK

KRas^G12V = molecular target: T3, KRas^G12V (Homo sapiens, UniProt P01116, G12V); assay: as above
T3 construct: […]; biotin (biotinylated); purchased Accelegan Inc
T3 sequence (P01116 1-169 isoform P01116-2 G12V): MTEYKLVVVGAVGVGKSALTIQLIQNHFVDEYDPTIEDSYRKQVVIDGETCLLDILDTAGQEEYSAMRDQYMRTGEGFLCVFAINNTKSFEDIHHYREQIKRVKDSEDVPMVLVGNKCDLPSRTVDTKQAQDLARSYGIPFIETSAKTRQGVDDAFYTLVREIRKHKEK

ASPC1 cells, pERK = assay: Inhibition of KRas phosphorylation of ERK (Cisbio HTRF Advanced pERK assay); assay type: cell-based; conditions: Homo sapiens, ASPC1, 3 h, AsPC-1 cells, read-out: Inhibition (HTRF IC50 nM) of KRas-mediated Phosphorylation of ERK, AsPC-1
Protocol: (§1) Inhibition of KRas Phosphorylation of ERK (HTRF) by Exemplary Compounds of Formula (I)
(§2) Cisbio HTRF Advanced pERK Assay Catalog #64AERPEH
(§3) • Day 1: Seed 6,000 cells/well −25 μl/well in 384-well white solid bottom plate; RPM1_10% FBS. […] To harvest cells from flask using 0.05% Trypsin/EDTA solution. Add 10 mL of media to stop trypsinizing. Pipette the cells into a conical bottom 50 mL centrifuge tube and centrifuge 5 min×1000 rpm. • 2. Re-suspend the cell pellet in media, take a cell count, and then adjust the cell density using fresh media. • 3. Seed 6,000 cells into cell culture plate with […]. The • 4. Incubate cell plate overnight in a 37° C., 5% CO2 incubator. Compound Titrations • 1. Use Tecan to complete the compound addition. Compounds start from 10 uM top, 3-fold dilution, and 10 doses. The final DMSO concentration is 0.8%. Dispensed 0.2 uM Trametinib as Min control. • 2. Incubate cell plate for 3 hrs in the incubator. Detection with Cisbio pERK HTRF Kit • 1. Dilute 1 volume of 4× lysis buffer with 3 volumes of deionized water. Then, add 100× the blocking reagent. Keep lysis buffer on the ice. • 2. At the end of the compound treatment, flick-off the media. • 3. Add 35 μL of lysis buffer per well using a Multidrop Combi. Then place on a plate agitator shaking at 300 rpm at 4° C. for 40 mins. • 4. Make up the HTRF antibody buffer. For each assay plate, mix 50 μL of d2-conjugate antibody with 950 μL of detection buffer. Similarly, mix 50 μL of Cryptate antibody with 950 μL of detection buffer. Then mix the two diluted antibodies together. • 5. Dispense 3.4 μL the antibody buffer to wells of an empty assay plate. Seal the plate and centrifuge plate 30 sec×1000 rpm. • 6. At the end of the 4° C. lysis, centrifuge the lysate plates 3 mins×1500 rpm. • 7. Use the Bravo to transfer 13.6 μL of lysate from cell culture plate to assay plate. Then incubate assay plate for 2 hrs at room temperature. • 8. At the end of incubation, read plate on the Envision after centrifuging plate 30 sec×1000 rpm.

H727 cells, pERK = assay: as above; assay type: cell-based; conditions: Homo sapiens, NCI-H727, 3 h, read-out: Inhibition (HTRF IC50 nM) of KRas-mediated Phosphorylation of ERK, H727
Protocol: as §1, §2, §3

MKN1 cells, pERK = assay: as above; assay type: cell-based; conditions: Homo sapiens, MKN-1, 3 h, read-out: Inhibition (HTRF IC50 nM) of KRas-mediated Phosphorylation of ERK, MKN1
Protocol: as §1, §2, §3

PSN1 cells, pERK = assay: as above; assay type: cell-based; conditions: Homo sapiens, PSN1, 3 h, read-out: Inhibition (HTRF IC50 nM) of KRas-mediated Phosphorylation of ERK, PSN1
Protocol: as §1, §2, §3

T1 sequence (P01116 1-169 isoform P01116-2 G12D): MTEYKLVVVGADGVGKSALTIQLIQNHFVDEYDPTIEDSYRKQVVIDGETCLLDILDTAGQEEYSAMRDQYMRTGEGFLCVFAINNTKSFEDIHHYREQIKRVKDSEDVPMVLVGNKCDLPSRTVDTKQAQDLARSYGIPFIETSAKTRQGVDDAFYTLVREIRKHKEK

SMILES | IC50 (KRas^G12D) [nM] | IC50 (KRas^G12R) [nM] | IC50 (KRas^G12V) [nM] | IC50 (ASPC1 cells, pERK) [nM] | IC50 (H727 cells, pERK) [nM] | IC50 (MKN1 cells, pERK) [nM] | IC50 (PSN1 cells, pERK) [nM]
CCc1c(F)ccc2cc(O)cc(N3CCc4c(nc(OC[C@@]56CCCN5C[C@H](F)C6)nc4N4CC5CCC(C4)O5)C3)c12 [Example 176, 4-(4-(8-oxa-3-azabicyclo[3.2.1]octan-3-yl)-2-(((2R,7aS)-2-fluorotetrahydro-1H-pyrrolizin-7a(5H)-yl)methoxy)-5,8-dihydropyrido[3,4-d]pyrimidin-7(6H)-yl)-5-ethyl-6-fluoronaphthalen-2-ol] | 78 | ≤ 2 | 11 | 5940 | 984 |  | 
CN1CCC[C@H]1COc1nc2c(c(N3CCCC4(CC(=O)N4)C3)n1)CCN(c1cccc3cccc(Cl)c13)C2 (stereo partly drawn) [Example 207, 8-[7-(8-chloro-1-naphthyl)-2-[[(2S)-1-methylpyrrolidin-2-yl]methoxy]-6,8-dihydro-5H-pyrido[3,4-d]pyrimidin-4-yl]-1,8-diazaspiro[3.5]nonan-2-one] | 765 | 553 | 404 | ≥ 10000 | ≥ 10000 |  | 
CCc1c(F)ccc2cc(O)cc(N3CCc4c(nc(OC[C@@]56CCCN5C[C@H](F)C6)nc4N4C[C@H](O)C[C@H](C(N)=O)C4)C3)c12 [Example 187, (3S,5R)-1-(7-(8-ethyl-7-fluoro-3-hydroxynaphthalen-1-yl)-2-(((2R,7aS)-2-fluorohexahydro-1H-pyrrolizin-7a-yl)methoxy)-5,6,7,8-tetrahydropyrido[3,4-d]pyrimidin-4-yl)-5-hydroxypiperidine-3-carboxamide] | 4 | ≤ 2 | ≤ 2 | 5330 | 1320 |  | 
CCc1c(F)ccc2cc(O)cc(N3CCc4c(nc(OC[C@@]56CCCN5C[C@H](F)C6)nc4N4C[C@H](O)C[C@@H](C(N)=O)C4)C3)c12 [Example 186, (3R,5R)-1-(7-(8-ethyl-7-fluoro-3-hydroxynaphthalen-1-yl)-2-(((2R,7aS)-2-fluorohexahydro-1H-pyrrolizin-7a-yl)methoxy)-5,6,7,8-tetrahydropyrido[3,4-d]pyrimidin-4-yl)-5-hydroxypiperidine-3-carboxamide] | ≤ 2 | ≤ 2 | ≤ 2 | 4360 | 2670 |  | 
Cc1cc2[nH]ncc2c(N2CCc3c(nc(OCC45CCCN4CCC5)nc3N3CCC[C@@](C)(O)C3)C2)c1C [Example 15, (R)-1-(7-(5,6-dimethyl-1H-indazol-4-yl)-2-((hexahydro-1H-pyrrolizin-7a-yl)methoxy)-5,6,7,8-tetrahydropyrido[3,4-d]pyrimidin-4-yl)-3-methylpiperidin-3-ol] | 126 | 144 | 103 | 1110 | 3190 |  | 
C[C@@]1(O)CCCN(c2nc(OCC34CCCN3CCC4)nc3c2CCN(c2cc(O)cc(Cl)c2C2CC2)C3)C1 [Example 204, (R)-1-(7-(3-chloro-2-cyclopropyl-5-hydroxyphenyl)-2-((hexahydro-1H-pyrrolizin-7a-yl)methoxy)-5,6,7,8-tetrahydropyrido[3,4-d]pyrimidin-4-yl)-3-methylpiperidin-3-ol] | 6 | 9 | 6 | 1530 | 1670 |  | 
Oc1cc(N2CCc3c(nc(OC[C@@]45CCCN4C[C@H](F)C5)nc3N3CC4CC(O)CC3C4)C2)c2c(Cl)c(F)ccc2c1 (single isomer, unassigned) [Example 76] | 37 | 7 | 7 |  |  |  | 5630
CN1CCC[C@H]1COc1nc2c(c(N3CCOCC(C)(O)C3)n1)CCN(c1cccc3cccc(Cl)c13)C2 (stereo partly drawn) [Example 205, 4-[7-(8-chloro-1-naphthyl)-2-[[(2S)-1-methylpyrrolidin-2-yl]methoxy]-6,8-dihydro-5H-pyrido[3,4-d]pyrimidin-4-yl]-6-methyl-1,4-oxazepan-6-ol] | 4690 | 6430 | 4700 | ≥ 10000 | ≥ 10000 |  | 
CN1CCC[C@H]1COc1nc2c(c(N3C[C@@H]4C(=O)NC(=O)[C@@H]4C3)n1)CCN(c1cccc3cccc(Cl)c13)C2 [Example 206, (3aS,6aR)-5-[7-(8-chloro-1-naphthyl)-2-[[(2S)-1-methylpyrrolidin-2-yl]methoxy]-6,8-dihydro-5H-pyrido[3,4-d]pyrimidin-4-yl]-3a,4,6,6a-tetrahydropyrrolo[3,4-c]pyrrole-1,3-dione] | 932 | 1620 | 833 | ≥ 10000 | ≥ 10000 |  | 

Now from value to compound:

IC50 (KRas^G12D) [nM] | IC50 (KRas^G12R) [nM] | IC50 (KRas^G12V) [nM] | IC50 (ASPC1 cells, pERK) [nM] | IC50 (H727 cells, pERK) [nM] | IC50 (MKN1 cells, pERK) [nM] | IC50 (PSN1 cells, pERK) [nM] | SMILES
10 | 3 | 3 | 1300 | 957 | 203 | 7580 | Oc1cc(N2CCc3c(nc(OC[C@@]45CCCN4C[C@H](F)C5)nc3N3CC4CC(O)C(C4)C3)C2)c2c(Br)c(F)ccc2c1 (stereo partly drawn) [Example 215, 3-(7-(8-bromo-7-fluoro-3-hydroxynaphthalen-1-yl)-2-(((2R,7aS)-2-fluorohexahydro-1H-pyrrolizin-7a-yl)methoxy)-5,6,7,8-tetrahydropyrido[3,4-d]pyrimidin-4-yl)-3-azabicyclo[3.2.1]octan-6-ol]
11 | 3 | 3 |  |  |  | 6500 | Oc1cc(N2CCc3c(nc(OC[C@@]45CCCN4C[C@H](F)C5)nc3N3CC4CC(O)CC3C4)C2)c2c(Br)c(F)ccc2c1 (single isomer, unassigned) [Example 213]
1120 | 4140 | 1900 | 7200 | 8520 |  |  | CN(C)C(=O)c1cc2n(n1)CCCN(c1nc(OC[C@@H]3CCCN3C)nc3c1CCN(c1cccc4cccc(Cl)c14)C3)C2 [Example 209, (S)-5-(7-(8-chloronaphthalen-1-yl)-2-((1-methylpyrrolidin-2-yl)methoxy)-5,6,7,8-tetrahydropyrido[3,4-d]pyrimidin-4-yl)-N,N-dimethyl-5,6,7,8-tetrahydro-4H-pyrazolo[1,5-a][1,4]diazepine-2-carboxamide]
579 | 699 | 497 | ≥ 10000 | ≥ 10000 |  |  | CN1CCC[C@H]1COc1nc2c(c(N3CCCC4(CNC(=O)N4)C3)n1)CCN(c1cccc3cccc(Cl)c13)C2 (stereo partly drawn) [Example 210, 7-(7-(8-chloronaphthalen-1-yl)-2-(((S)-1-methylpyrrolidin-2-yl)methoxy)-5,6,7,8-tetrahydropyrido[3,4-d]pyrimidin-4-yl)-1,3,7-triazaspiro[4.5]decan-2-one]
101 | 34 | 38 | 4890 | 2880 |  |  | CN1CCC[C@H]1COc1nc2c(c(N3CCCC4(C3)NC(=O)NC4=O)n1)CCN(c1cccc3cccc(Cl)c13)C2 (stereo partly drawn) [Example 211, 9-[7-(8-chloro-1-naphthyl)-2-[[(2S)-1-methylpyrrolidin-2-yl]methoxy]-6,8-dihydro-5H-pyrido[3,4-d]pyrimidin-4-yl]-1,3,9-triazaspiro[4.5]decane-2,4-dione]
136 | 350 | 197 | 4050 | 6940 |  |  | CN1CCC[C@H]1COc1nc2c(c(N3CCCC4(CNS(=O)(=O)N4)C3)n1)CCN(c1cccc3cccc(Cl)c13)C2 (stereo partly drawn) [Example 208, 9-[7-(8-chloro-1-naphthyl)-2-[[(2S)-1-methylpyrrolidin-2-yl]methoxy]-6,8-dihydro-5H-pyrido[3,4-d]pyrimidin-4-yl]-2λ6-thia-1,3,9-triazaspiro[4.5]decane 2,2-dioxide]
